# Results as given in patent US5760235A, “Anticoagulant peptide derivatives and pharmaceutical compositions containing the same as well as a process for preparation thereof” (Gyogyszerkutato Intezet Kft., priority 1992, dated 1998).
# Columns and labels:
# citrated blood plasma [1] = assay: In vitro activated partial thromboplastin time (APTT), citrated blood plasma; format: biochemical, human; parameters: unit not given here
# Protocol: (§1) The antithrombin activity of the compounds of general formula (I) was determined by the usual method [Bagdy et al.: Thromb Haemostas 67, 325-330 (1992)] by measuring whole blood clotting time (WBCT), thrombin time (TT) and activated partial thromboplastin time (APTT). The in vitro activity of some compounds of the invention assayed on native human blood (non-anticoagulated clotting) (WBCT) and on citrated blood plasma (TT and APTT) is presented in Table 1.
# (§2) ^2 WBCT = whole blood clotting time, TT = thrombin time, APTT =
# (§3) activated partial thromboplastin time parameter. The figures represent
# (§4) concentrations of the compounds required to double the clotting time of
# (§5) native whole human blood or of citrated blood plasma.
# native whole human blood = assay: In vitro whole blood clotting time (WBCT), native human blood; format: biochemical; parameters: unit not given here
# Protocol: as §1, §2, §3, §4, §5
# citrated blood plasma [2] = assay: In vitro thrombin time (TT), citrated blood plasma; format: biochemical, human; parameters: unit not given here
# Protocol: as §1, §2, §3, §4, §5
# [3] = tested on: fibrinolysis induced by tissue plasminogen activator; assay: Fibrinolysis induced by tissue plasminogen activator, thromboelastogram; format: biochemical
# Text: The compounds of the general formula (I) inhibit clot formation without interfering with the natural lysis of blood clots in the body, e.g. fibrinolysis. […] Thromboelastography. In: Bang N. U., F. K. Beller, E. Deutsch, E. F. Mamman eds. Thrombosis and Bleeding Disorders. Theory and Methods. Academic Press, London, 1971: 70-76].
# citrated plasma [4] = assay: In vivo antithrombin effect in rabbits: citrated plasma thrombin time (TT)
# Protocol: (§6) The in vivo antithrombin effect of the compounds of general formula (I) was treated in rabbits by a known method [Bagdy et al: Thromb Haemost 67, 357-365 (1992)]. The compounds were applied in a dose of 0.5-3.0 mg/kg s.c. and 5-15 mg/kg p.o. The effect was already detectable 15-30 minutes after drug administration, peak effect was attained after 90-120 minutes but the therapeutic effect was dose dependently maintained during 3 to longer than 5 hours.
# (§7) The in vivo antithrombin effect of 3-cyclohexyl-D-lactyl-L-prolyl-L-arginine aldehyde hemisulfate (Example 7.) is presented in detail in Tables 2 and 3. The compound was administered in doses of 10 and 15 mg/kg, resp., p.o. and the blood samples taken from the ear-vein of the animals were assayed in every 30 minutes. The whole blood clotting time (WBCT) and the inhibition of whole blood platelet aggregation induced by thrombin (IWBA) were determined. Furthermore the citrated plasma thrombin time (TT) of the blood sample and the activated partial thromboplastin time (APTT) were measured, too. The WBCT and APTT values are presented in Table 2 and the TT and IWBA values in Table 3.
# [5] = tested on: whole blood platelet aggregation induced by thrombin; assay: In vivo antithrombin effect in rabbits: inhibition of whole blood platelet aggregation induced by thrombin (IWBA)
# Protocol: as §6, §7
# citrated plasma [6] = assay: In vivo antithrombin effect in rabbits: activated partial thromboplastin time (APTT)
# Protocol: as §6, §7
# whole blood clotting = assay: In vivo antithrombin effect in rabbits: whole blood clotting time (WBCT)
# Protocol: as §6, §7
smiles,measurement,setting,value
"N=C(N)NCCC[C@@H](C=O)NC(=O)[C@@H]1CCCN1C(=O)[C@@H]1OCCc2ccccc21.N=C(N)NCCC[C@@H](C=O)NC(=O)[C@@H]1CCCN1C(=O)[C@@H]1OCCc2ccccc21.O=S(=O)(O)O [Example 1, D-Isochroman-1-carbonyl-L-prolyl-L-arginine aldehyde hemisulfate]",APTT: concentration required to double the clotting time,citrated blood plasma [1],0.60
same,WBCT: concentration required to double the clotting time,native whole human blood,1.55
same,TT: concentration required to double the clotting time,citrated blood plasma [2],0.132
"N=C(N)NCCC[C@@H](C=O)NC(=O)[C@H]1CCCN1C(=O)C(O)c1ccccc1.N=C(N)NCCC[C@@H](C=O)NC(=O)[C@H]1CCCN1C(=O)C(O)c1ccccc1.O=S(=O)(O)O (stereo partly drawn) [Example 6, D-2-Phenyl-2-hydroxyacetyl-L-prolyl-L-arginine aldehyde hemisulfate]",APTT: concentration required to double the clotting time,citrated blood plasma [1],0.15
same,WBCT: concentration required to double the clotting time,native whole human blood,0.45
same,TT: concentration required to double the clotting time,citrated blood plasma [2],0.040
same,inhibitory effect on fibrinolysis induced by tissue plasminogen activator,[3],only negligible inhibitory effect
"N=C(N)NCCC[C@@H](C=O)NC(=O)[C@@H]1CCCN1C(=O)[C@H](O)CC1CCCCC1.N=C(N)NCCC[C@@H](C=O)NC(=O)[C@@H]1CCCN1C(=O)[C@H](O)CC1CCCCC1.O=S(=O)(O)O [Example 7, 3-Cyclohexyl-D-lactyl-L-prolyl-L-arginine aldehyde hemisulfate]",TT,"citrated plasma [4]; 10 mg/kg p.o., time 0 min",18.4 ± 2.1 s
same,TT,"citrated plasma [4]; 10 mg/kg p.o., time 30 min",317.1 ± 123.0 s
same,TT,"citrated plasma [4]; 10 mg/kg p.o., time 60 min",416.0 ± 107.2 s
same,TT,"citrated plasma [4]; 10 mg/kg p.o., time 90 min",444.7 ± 108.6 s
same,TT,"citrated plasma [4]; 10 mg/kg p.o., time 120 min",264.6 ± 101.3 s
same,TT,"citrated plasma [4]; 10 mg/kg p.o., time 150 min",201.1 ± 109.9 s
same,TT,"citrated plasma [4]; 10 mg/kg p.o., time 180 min",182.7 ± 113.6 s
same,TT,"citrated plasma [4]; 10 mg/kg p.o., time 210 min",123.0 ± 65.3 s
same,TT,"citrated plasma [4]; 10 mg/kg p.o., time 240 min",141.5 ± 81.3 s
same,TT,"citrated plasma [4]; 10 mg/kg p.o., time 270 min",65.4 ± 25.7 s
same,TT,"citrated plasma [4]; 10 mg/kg p.o., time 300 min",41.8 ± 11.4 s
same,TT,"citrated plasma [4]; 15 mg/kg p.o., time 0 min",18.9 ± 2.1 s
same,TT,"citrated plasma [4]; 15 mg/kg p.o., time 30 min",371.2 ± 142.3 s
same,TT,"citrated plasma [4]; 15 mg/kg p.o., time 60 min",528.3 ± 72.9 s
same,TT,"citrated plasma [4]; 15 mg/kg p.o., time 90 min",578.8 ± 21.5 s
same,TT,"citrated plasma [4]; 15 mg/kg p.o., time 120 min",> 600.0 ± 0 s
same,TT,"citrated plasma [4]; 15 mg/kg p.o., time 150 min",549.6 ± 34.0 s
same,TT,"citrated plasma [4]; 15 mg/kg p.o., time 180 min",380.7 ± 116.0 s
same,TT,"citrated plasma [4]; 15 mg/kg p.o., time 210 min",342.1 ± 121.2 s
same,TT,"citrated plasma [4]; 15 mg/kg p.o., time 240 min",340.9 ± 137.0 s
same,TT,"citrated plasma [4]; 15 mg/kg p.o., time 270 min",376.4 ± 153.0 s
same,TT,"citrated plasma [4]; 15 mg/kg p.o., time 300 min",261.0 ± 140.8 s
same,APTT: concentration required to double the clotting time,citrated blood plasma [1],0.20
same,IWBA,"[5]; 10 mg/kg p.o., time 30 min",89.4 ± 7.6%
same,IWBA,"[5]; 10 mg/kg p.o., time 60 min",95.8 ± 6.9%
same,IWBA,"[5]; 10 mg/kg p.o., time 90 min",81.6 ± 8.2%
same,IWBA,"[5]; 10 mg/kg p.o., time 120 min",94.0 ± 3.2%
same,IWBA,"[5]; 10 mg/kg p.o., time 150 min",71.4 ± 13.8%
same,IWBA,"[5]; 10 mg/kg p.o., time 180 min",72.4 ± 19.2%
same,IWBA,"[5]; 10 mg/kg p.o., time 210 min",54.4 ± 21.0%
same,IWBA,"[5]; 10 mg/kg p.o., time 240 min",50.6 ± 17.7%
same,IWBA,"[5]; 10 mg/kg p.o., time 270 min",35.2 ± 17.3%
same,IWBA,"[5]; 10 mg/kg p.o., time 300 min",48.2 ± 16.9%
same,IWBA,"[5]; 15 mg/kg p.o., time 30 min",81.4%
same,IWBA,"[5]; 15 mg/kg p.o., time 60 min",97.4%
same,IWBA,"[5]; 15 mg/kg p.o., time 90 min",100.0 ± 0%
same,IWBA,"[5]; 15 mg/kg p.o., time 120 min",100.0 ± 0%
same,IWBA,"[5]; 15 mg/kg p.o., time 150 min",100.0 ± 0%
same,IWBA,"[5]; 15 mg/kg p.o., time 180 min",100.0 ± 0%
same,IWBA,"[5]; 15 mg/kg p.o., time 210 min",93.7%
same,IWBA,"[5]; 15 mg/kg p.o., time 240 min",82.6%
same,IWBA,"[5]; 15 mg/kg p.o., time 270 min",81.0%
same,IWBA,"[5]; 15 mg/kg p.o., time 300 min",69.6%
same,WBCT: concentration required to double the clotting time,native whole human blood,0.32
same,APTT,"citrated plasma [6]; 10 mg/kg p.o., time 0 min",27.7 ± 1.2 s
same,APTT,"citrated plasma [6]; 10 mg/kg p.o., time 30 min",58.9 ± 9.0 s
same,APTT,"citrated plasma [6]; 10 mg/kg p.o., time 60 min",77.6 ± 14.6 s
same,APTT,"citrated plasma [6]; 10 mg/kg p.o., time 90 min",65.1 ± 8.4 s
same,APTT,"citrated plasma [6]; 10 mg/kg p.o., time 120 min",55.1 ± 11.4 s
same,APTT,"citrated plasma [6]; 10 mg/kg p.o., time 150 min",52.1 ± 6.6 s
same,APTT,"citrated plasma [6]; 10 mg/kg p.o., time 180 min",53.8 ± 8.5 s
same,APTT,"citrated plasma [6]; 10 mg/kg p.o., time 210 min",48.6 ± 3.8 s
same,APTT,"citrated plasma [6]; 10 mg/kg p.o., time 240 min",47.7 ± 7.4 s
same,APTT,"citrated plasma [6]; 10 mg/kg p.o., time 270 min",44.4 ± 3.7 s
same,APTT,"citrated plasma [6]; 10 mg/kg p.o., time 300 min",43.7 ± 5.0 s
same,APTT,"citrated plasma [6]; 15 mg/kg p.o., time 0 min",32.6 ± 4.6 s
same,APTT,"citrated plasma [6]; 15 mg/kg p.o., time 30 min",115.0 ± 36.6 s
same,APTT,"citrated plasma [6]; 15 mg/kg p.o., time 60 min",150.4 ± 30.9 s
same,APTT,"citrated plasma [6]; 15 mg/kg p.o., time 90 min",170.3 ± 18.5 s
same,APTT,"citrated plasma [6]; 15 mg/kg p.o., time 120 min",145.6 ± 22.7 s
same,APTT,"citrated plasma [6]; 15 mg/kg p.o., time 150 min",149.2 ± 22.0 s
same,APTT,"citrated plasma [6]; 15 mg/kg p.o., time 180 min",169.0 ± 23.0 s
same,APTT,"citrated plasma [6]; 15 mg/kg p.o., time 210 min",137.7 ± 25.8 s
same,APTT,"citrated plasma [6]; 15 mg/kg p.o., time 240 min",127.4 ± 25.7 s
same,APTT,"citrated plasma [6]; 15 mg/kg p.o., time 270 min",133.4 ± 24.7 s
same,APTT,"citrated plasma [6]; 15 mg/kg p.o., time 300 min",92.8 ± 18.4 s
same,TT: concentration required to double the clotting time,citrated blood plasma [2],0.072
same,inhibitory effect on fibrinolysis induced by tissue plasminogen activator,[3],only negligible inhibitory effect
same,WBCT,"whole blood clotting; 10 mg/kg p.o., time 0 min",13.2 ± 1.1 min
same,WBCT,"whole blood clotting; 10 mg/kg p.o., time 30 min",17.7 ± 1.6 min
same,WBCT,"whole blood clotting; 10 mg/kg p.o., time 60 min",23.6 ± 1.9 min
same,WBCT,"whole blood clotting; 10 mg/kg p.o., time 90 min",21.2 ± 2.9 min
same,WBCT,"whole blood clotting; 10 mg/kg p.o., time 120 min",18.8 ± 1.0 min
same,WBCT,"whole blood clotting; 10 mg/kg p.o., time 150 min",19.2 ± 1.1 min
same,WBCT,"whole blood clotting; 10 mg/kg p.o., time 180 min",18.4 ± 1.5 min
same,WBCT,"whole blood clotting; 10 mg/kg p.o., time 210 min",17.2 ± 2.3 min
same,WBCT,"whole blood clotting; 10 mg/kg p.o., time 240 min",15.8 ± 1.7 min
same,WBCT,"whole blood clotting; 10 mg/kg p.o., time 270 min",16.2 ± 2.1 min
same,WBCT,"whole blood clotting; 10 mg/kg p.o., time 300 min",13.5 ± 0.9 min
same,WBCT,"whole blood clotting; 15 mg/kg p.o., time 0 min",14.6 ± 0.4 min
same,WBCT,"whole blood clotting; 15 mg/kg p.o., time 30 min",24.2 ± 4.7 min
same,WBCT,"whole blood clotting; 15 mg/kg p.o., time 60 min",29.4 ± 4.5 min
same,WBCT,"whole blood clotting; 15 mg/kg p.o., time 90 min",33.0 ± 5.9 min
same,WBCT,"whole blood clotting; 15 mg/kg p.o., time 120 min",34.4 ± 4.4 min
same,WBCT,"whole blood clotting; 15 mg/kg p.o., time 150 min",27.2 ± 3.6 min
same,WBCT,"whole blood clotting; 15 mg/kg p.o., time 180 min",29.5 ± 2.7 min
same,WBCT,"whole blood clotting; 15 mg/kg p.o., time 210 min",34.0 ± 5.9 min
same,WBCT,"whole blood clotting; 15 mg/kg p.o., time 240 min",33.7 ± 6.5 min
same,WBCT,"whole blood clotting; 15 mg/kg p.o., time 270 min",26.0 ± 1.2 min
same,WBCT,"whole blood clotting; 15 mg/kg p.o., time 300 min",23.6 ± 3.3 min
